PMC11674377 (2024)

Key:
[1] = tested on: sildenafil aptamer molecular gate (SDF-Aptamer + 3' TGCAAT) (DNA, aptamer) ATTGCAAACCCTCTACCAACAATCGTACTCGTTCGACGTGATGCAAT; test: TMB release from aptamer-gated silica nanoparticles; settings: 1 µM sildenafil; immobilised aptamer gate; about 63 ± 6.2% of TMB released; control leakage 7.2 ± 4.4%
[2] = tested on: SDF-Aptamer (DNA, aptamer) ATTGCAAACCCTCTACCAACAATCGTACTCGTTCGACGTGA; test: fluorescent graphene oxide assay, Langmuir one-ligand fit; settings: K+ 2.7 mM, Na+ 137 mM; PBS (0.01 M phosphate, pH 7.4), 25 °C; aptamer 1 µM; unbound aptamer removed with 4 mg/mL GO; salt form used not stated (b30 mentions citrate)

binding [1]: yes
KD [2]: 205.3 ± 38.1 nM
SMILES: CCCc1nn(C)c2c(=O)[nH]c(-c3cc(S(=O)(=O)N4CCN(C)CC4)ccc3OCC)nc12
